Experimental data reported in patent US9868977B2, “Red-shifted luciferins and methods of using same” (PROMEGA CORPORATION, priority 2013, dated 2018).

Experiments:
Type in all cases: biochemical
[1] = tested on: Leu-aminopeptidase; test: Titration of Leu-aminopeptidase with pro-substrate and luciferin detection reagent; conditions: pro-substrate 20, 2 or 0.2 uM; Leu-aminopeptidase serially diluted; luminescence every 5 min for 90 min
Method: To a lyophilized vial of luciferin detection reagent (Promega; V859A), 10 ml of a solution of 100 mM HEPES pH 7.5/10 mM MgSO4 was added and allowed to equilibrate for 30 minutes at room temperature.
A 20 uM solution of Leu-luciferin and a 20 uM solution of PBI-5044 were prepared in a solution of 100 mM HEPES/0.1% Prionex. The 20 uM solution of PBI-5044 was then serially diluted in the HEPES/Prionex solution to 2 uM and 0.2 uM solutions.
1 U/ml Leu-aminopeptidase (Sigma) was serially diluted (FIG. 1) into each of the luciferin dilutions (20 uM Leu-luciferin, 20 uM PBI-5044, 2 uM PBI-5044 or 0.2 uM PBI-5044). For example, 50 ul 1 U/ml Leu-aminopeptidase was added to 450 ul luciferin dilution (final concentration of Leu-aminopeptidase was 0.1 U/ml). Leu-aminopeptidase was then serially diluted by adding 150 ul Leu-aminopeptidase solution to 350 ul of each prepared luciferin derivative.
In triplicate, 50 ul of each serially diluted Leu-aminopeptidase/luciferin sample was added to a well of a white, 96-well assay plate (Costar 3355), and 50 ul of the equilibrated luciferin detection reagent added to each sample. Luminescence was detected every 5 minutes for 90 minutes on a GloMax® Multi luminometer (Promega) at room temperature.

[2] = tested on: Aminopeptidase; test: Multiplexing of Leu-luciferin and PBI-5044 with filtered luminescence; conditions: 20 uM Leu-Luciferin/20 uM PBI-5044; 630 long pass and 525 short pass filters
Method: To a lyophilized vial of luciferin detection reagent (Promega; V859A), 10 ml of a solution of 100 mM HEPES pH 7.5/10 mM MgSO4 was added (LDR) and allowed to equilibrate for 30 minutes at room temperature.
Aminopeptidase was diluted to 0.01 u/ml into a solution containing 100 mM HEPES pH 7.5 and 0.1% Prionex. The following solutions were then prepared in the aminopeptidase dilution: • 1. 20 uM Leu-Luciferin, • 2. 20 uM PBI-5044, • 3. 20 uM Leu-Luciferin/20 uM PBI-5044
In triplicate, 50 ul of each of the above mixtures (1-3) was added to 50 ul of LDR and incubate for 15 minutes. Luminescence was measured on a GloMax® 96 luminometer equipped with a 630 long pass filter (Edmond Optics 253253) and a 525 short pass filter (Edmond Optics 84694).

[3] = tested on: esterase; test: Effect of esterase on bioluminescence of ester pro-substrate; conditions: serial dilutions; luciferin detection reagent with esterase, with or without UltraGlo luciferase
Method: Reconstitution buffer with esterase (10 ml; Promega Cat. No. V144A) and luciferin detection reagent (Promega; V859A) were mixed and incubated at room temperature for 30 minutes (“Luciferin Detection Reagent”). UltraGlo® luciferase (210 ul of 5.7 mg/ml; Promega) was then added to 3 mls of the luciferin detection reagent.
Serial dilutions of PBI-5045 (isonaphtholuciferin methyl ester) were made in a solution of 100 mM HEPES/10 mM MgSO4. 50 ul of each serially diluted PBI-5045 was then added to a well of a white, 96-well assay plate (n=6). Then, either 50 ul luciferin detection reagent or luciferin detection reagent with UltraGlo® luciferase was added to the wells. Luminescence was detected on a GloMax® Multi+ luminometer (Promega).
FIGS. 4A and 4B show the effects of esterase on PBI-5045.

| SMILES | bioluminescent response as a function of added aminopeptidase (reporting protease activity) [1] | separation of bioluminescence from luciferin by filters (multiplexing) [2] | luminescence in presence of esterase (reporting esterase activity) [3] |
| --- | --- | --- | --- |
| CC(C)C[C@H](N)C(=O)Nc1ccc2c(ccc3nc(C4=NC(C(=O)O)CS4)sc32)c1 (stereo partly drawn) [PBI-5044, 2-(7-(Leucinyl)aminonaphtho[2,1-d]thiazol-2-yl)-4,5-dihydrothiazole-4-carboxylic acid] | successful use in reporting protease activity | luminescence from each detected with little interference from the other | – |
| COC(=O)C1CSC(c2nc3ccc4cc(O)ccc4c3s2)=N1 (stereo not drawn) [PBI-5045, 2-(7-Hydroxynaphtho[2,1-d]thiazol-2-yl)-4,5-dihydrothiazole-4-carboxylic acid methyl ester] | – | – | successful use in reporting esterase activity |
